The compounds below were run against LTC4S (Homo sapiens (Human), UniProt Q16873) (assay: Human whole blood HTRF assay (LTC4 release after calcium ionophore A23187)). Conditions: human whole blood diluted 1:3, 4 h incubation, calcium ionophore A23187 stimulation, LTC4 by HTRF; read-out: human whole blood HTRF IC50.
Type: cell-based
Protocol: B. Human Whole Blood HTRF Assay
LTC4 synthase catalyzes the conversion of Leukotriene A4 (LTA4) to Leukotriene C4 (LTC4) in the presence of reduced glutathione (GSH) as a co-substrate. For testing the inhibition of LTC4S, compounds are prepared for either eight-point or sixteen-point dose response studies in 384-well Labcyte low dead volume (LDV) plates. For eight-point dose response studies, compounds are diluted 1:5 starting at 1 μM concentration in 90% DMSO. […] Compounds are studied in duplicates. Ten wells are filled with 90% DMSO which correspond to the stimulated and unstimulated control wells. […] The morning of the assay, whole blood is collected from three human donors. Donors must be non-smokers and must not have taken NSAIDs within the 48 hours prior to blood collection. The amount of blood collected per donor depends on the amount of compounds to be tested and the dose response format in which they are to be studied (about 8 mL of whole blood for either 22 compounds in 8-point dose response format or 11 compounds in 16-point dose response format). […] 50 μL of diluted blood are then dispensed into each assay plate well with pre-dispensed compounds and DMSO for the stimulated and unstimulated controls using a Thermo Scientific™ Multidrop™ Combi reagent dispenser, and incubated at 37° C. for 4 hours. Calcium ionophore A23187 is used to induce a rapid increase in intracellular levels of Ca^2+. The Ca^2+ functions as a universal second messenger in various immune cells, such as T cells, B cells and mast cells, and is used to induce degranulation and release of eicosanoids, including LTC4, by cells contained in the whole blood samples. […] All but the unstimulated control wells are subsequently stimulated by dispensing 1 μL of the 0.5 mg/mL calcium ionophore suspension using the Thermo Scientific™ Multidrop™ Combi reagent dispenser. Plates are incubated for 15 minutes at 37° C. Plates are then centrifuged at 300 g for 10 minutes at room temperature to pellet blood cells and stop the reaction. […] Plates are sealed and stored at −80° C.
In order to measure the amount of LTC4 released by cells in the human blood samples during calcium ionophore stimulation, supernatants are analyzed using the Cisbio LTC4 homogeneous time-resolved FRET (HTRF) kit (Cisbio #64LC4PEH). […] Ten serially diluted standard curve solutions are also dispensed in duplicate into each plate as instructed in the protocol. Blank controls and cryptate control wells are also prepared. Then, 5 μL of anti-LTC4-d2 working solution are dispensed into all the wells, but the cryptate control wells. Subsequently, 5 μL of anti-LTC4-Eu3+ cryptate working solution are dispensed into all the wells. Plates are then covered with a lid and incubated at room temperature for one hour with gentle orbital shaking (˜450 rpm). […] HTRF ratios are calculated for each well by dividing the 665 nm intensity by the 620 nm intensity, and multiplying the resulting ratio by 10,000. LTC4 standard curves are interpolated for each plate and used to convert the HTRF ratio readouts into the amount of LTC4 present in each well (in ng/mL). Parametric curve fitting is used to obtain inhibition curves and IC50 values.
`Nc1nc(N2CCC3(CCCC(=O)N3c3ccc(F)c(F)c3)CC2)cc(N2C[C@H]3C[C@@H]2CO3)n1` (racemic) [Example 46, rac-9-(2-amino-6-((1R,4R)-2-oxa-5-azabicyclo[2.2.1]heptan-5-yl)pyrimidin-4-yl)-1-(3,4-difluorophenyl)-1,9-diazaspiro[5.5]undecan-2-one] gave an IC50 of 490 nM. `O=C1CCCC2(CCN(c3cc(-n4cc(C(F)(F)F)cn4)nc(CO)n3)CC2)N1c1ccc(F)c(F)c1` (racemic) [Example 67, rac-1-(3,4-difluorophenyl)-9-(2-(1-hydroxymethyl)-6-(4-(trifluoromethyl)-1H-pyrazol-1-yl)pyrimidin-4-yl)1,9-diazaspiro[5.5]undecane-2-one] gave an IC50 of 2 nM. Compound `CC(Oc1cc(N2CCC3(CCCC(=O)N3c3ccc(F)c(F)c3)CC2)ncn1)C(F)(F)F` (racemic) [Example 86, rac-1-(3,4-dfluorophenyl)-9-(6-((1,1,1-trifluoropropan-2-yl)oxy)pyrimidin-4-yl)-1,9-diazaspiro[5.5]undecan-2-one] has an IC50 of 2 nM. `CC(Oc1cc(N2CCC3(CCCC(=O)N3c3ccc(F)c(F)c3)CC2)nc(N)n1)C(F)(F)F` (racemic) [Example 95, rac-9-(2-amino-6-((1,1,1-trifluoropropan-2-yl)oxy)pyrimidn-4-yl)-1-(3,4-difluorophienyl)-1,9-diazaspiro[5.5]undecan-2-one] showed an IC50 of 2 nM. Compound `CC1(C(Oc2cc(N3CCC4(CCCC(=O)N4c4ccc(F)c(F)c4)CC3)nc(N)n2)C(F)(F)F)COC1` (racemic) [Example 96, rac-9-(2-amino-6-(2,2,2-trifluoro-1-(3-methyloxetan-3-yl)ethoxy)pyrimidin-4-yl)-1-(3,4-difluorophenyl)-1,9-diazaspiro[5.5]undecan-2-one] has an IC50 of 3 nM. `Nc1nc(OC2COCC2(F)F)cc(N2CCC3(CCCC(=O)N3c3ccc(F)c(F)c3)CC2)n1` (racemic) [Example 98, rac-9-(2-amino-6-((4,4-difluorotetrahydrofuran-3-yl)oxy)pyrimidin-4-yl)-1-(3,4-difluorophenyl)-1,9-diazaspiro[5.5]undecan-2-one] was tested, and the IC50 was 3 nM. With `Nc1nc(O[C@H]2CCOC[C@@H]2F)cc(N2CCC3(CCCC(=O)N3c3ccc(F)c(F)c3)CC2)n1` (racemic) [Example 99, rac-9-(2-amino-6-(((3S,4S)-3-fluorotetrahydro-2H-pyran-4-yl)oxy)pyrimidin-4-yl)-1-(3,4-difluorophenyl)-1,9-diazaspiro[5.5]undecan-2-one] the IC50 was 4 nM. With `Nc1nc(O[C@@H]2COC[C@H]2F)cc(N2CCC3(CCCC(=O)N3c3ccc(F)c(F)c3)CC2)n1` (racemic) [Example 102, rac-9-(2-amino-6-(((3R,4R)-4-fluorotetrahydrofuran-3-yl)oxy)pyrimidin-4-yl)-1-(3,4-difluorophenyl)-1,9-diazaspiro[5.5]undecan-2-one] the IC50 was 9 nM. With `CC1(Oc2cc(N3CCC4(CCCC(=O)N4c4ccc(F)c(F)c4)CC3)nc(N)n2)CCOC1` (racemic) [Example 104, rac-9-(2-amino-6-((3-methyltetrahydrofuran-3-yl)oxy)pyrimidin-4-yl)-1-(3,4-difluorophenyl)-1,9-diazaspiro[5.5]undecan-2-one] the IC50 was 5 nM. `Nc1nc(O[C@H]2COC[C@H]2F)cc(N2CCC3(CCCC(=O)N3c3ccc(F)c(F)c3)CC2)n1` (racemic) [Example 105, rac-9-(2-amino-6-(((3S,4R)-4-fluorotetrahydrofuran-3-yl)oxy)pyrimidin-4-yl)-1-(3,4-difluorophenyl)-1,9-diazaspiro[5.5]undecan-2-one] gave an IC50 of 6 nM. With `O=C1CCCC2(CCN(c3cc(O[C@@H]4CCOC[C@@H]4F)nc(CO)n3)CC2)N1c1ccc(F)c(F)c1` (racemic) [Example 107, rac-1-(3,4-difluorophenyl)-9-(6-(((3S,4R)-3-fluorotetrahydro-2H-pyran-4-yl)oxy)-2-(hydroxymethyl)pyrimidin-4-yl)-1,9-diazaspiro[5.5]undecan-2-one] the IC50 was 6 nM. Compound `O=C1CCCC2(CCN(c3cc(O[C@@H]4COC[C@H]4F)nc(CO)n3)CC2)N1c1ccc(F)c(F)c1` (racemic) [Example 108, rac-1-(3,4-diflurophenyl)-9-(6-(((3R,4R)-4-fluorotetrahydrofuran-3-yl)oxy)-2-(hydroxymethyl)pyrimidin-4-yl)-1,9-diazaspiro[5.5]undecan-2-one] has an IC50 of 22 nM. With `CCOC(=O)c1nc(O[C@@H]2COC[C@H]2F)cc(N2CCC3(CCCC(=O)N3c3ccc(F)c(F)c3)CC2)n1` (racemic) [Example 111, rac ethyl 4-(1-(3,4-difluorophenyl)-2-oxo-1,9-diazaspiro[5.5]undecane-9-yl)-6-(((3S,4S)-4-fluorotetrahydrofuran-3-yl)oxy)pyrimidine-2-carboxylate] the IC50 was 17 nM. For `Nc1nc(N2CCC3(CC2)CC(F)CC(=O)N3c2ccc(F)c(F)c2)cc(C(F)(F)C(F)(F)F)n1` (racemic) [Example 117, rac-9-(2-amino-6-(perfluoroethyl)pyrimidin-4-yl)-1-(3,4-difluorophenyl)-4-fluoro-1,9-diazaspiro[5.5]undecan-2-one], the IC50 was 18 nM. With `O=C1CC(F)CC2(CCN(c3cc(OC4CCOCC4)ncn3)CC2)N1c1ccc(F)c(F)c1` (racemic) [Example 118, rac-1-(3,4-difluorophenyl)-4-fluoro-9-(6-((tetrahydro-2H-pyran-4-yl)oxy)pyrimidin-4-yl)-1,9-diazaspiro[5.5]undecan-2-one] the IC50 was 8 nM. For `Nc1nc(O[C@H](C2COC2)C(F)(F)F)cc(N2CCC3(CCCC(=O)N3c3ccc(F)c(F)c3)CC2)n1` (single isomer, unassigned) [Example 89b, (R)-9-(2-amino-6-(2,2,2-trifluoro-1-(oxetan-3-yl)ethoxy)pyrimidin-4-yl)-1-(3,4-difluorophenyl)-1,9-diazaspiro[5.5]undecan-2-one or (S)-9-(2-amino-6-(2,2,2-trifluoro-1-(oxetan-3-yl)ethoxy)pyrimidin-4-yl)-1-(3,4-difluorophenyl)-1,9-diazaspiro[5.5]undecan-2-one], the IC50 was 5 nM. In the case of `C[C@@H](Oc1cc(N2CCC3(CCCC(=O)N3c3ccc(F)c(F)c3)CC2)nc(CO)n1)C(F)(F)F` (single isomer, unassigned) [Example 110b, (R)-1-(3,4-difluorophenyl)-9-(2-(hydroxymethyl)-6-((1,1,1-trifluoropropan-2-yl)oxy)pyrimidin-4-yl)-1,9-diazaspiro[5.5]undecan-2-one or (S)-1-(3,4-difluorophenyl)-9-(2-(hydroxymethyl)-6-((1,1,1-trifluoropropan-2-yl)oxy)pyrimidin-4-yl)-1,9-diazaspiro[5.5]undecan-2-one], the IC50 is reported as 5 nM. In the case of `Nc1nc(OC2CCOCC2)cc(N2CCC3(CC2)C[C@H](F)CC(=O)N3c2ccc(F)c(F)c2)n1` (single isomer, unassigned) [Example 116a, (R)-9-(2-amino-6-((tetrahydro-2H-pyran-4-yl)oxy)pyrimidin-4-yl)-1-(3,4-difluorophenyl)-4-fluoro-1,9-diazaspiro[5.5]undecan-2-one, or (S)-9-(2-amino-6-((tetrahydro-2H-pyran-4-yl)oxy)pyrimidin-4-yl)-1-(3,4-difluorophenyl)-4-fluoro-1,9-diazaspiro[5.5]undecan-2-one], the IC50 is reported as 13 nM.

From US11708366B2, “Heteroaryl substituted spiropiperidinyl derivatives and pharmaceutical uses thereof” (Novartis AG, priority 2020, dated 2023)
